Relative viability data for seven cell lines are collected here from the supplement of paper PMC10307832.

Holding throughout (assay): relative viability (nuclei count vs DMSO), 5 days (fraction); higher = more cells survive
Compound in the test “Ruxolitinib + Vorinostat”: N#CC[C@H](C1CCCC1)n1cc(-c2ncnc3[nH]ccc23)cn1 [Ruxolitinib] + O=C(CCCCCCC(=O)Nc1ccccc1)NO [Vorinostat] (partner 1 µM)
Put shortly: (§1)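 For relative viability, nuclei counts in treated wells were divided by those in vehicle wells. Lung cancer cell lines had been pin-tool dosed in 1536-well plates the day after seeding and cultured for 5 days, then fixed and stained in one step (final 0.05% Triton X-100, 1% formaldehyde, 1 ug/ml Hoechst) and imaged at 4×. Doses were one drug alone or a fixed anchor-drug dose plus five library-drug doses (not always all listed) in √10 steps, and values are duplicate-plate medians.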

Compound in the test “VE-821 + Foretinib”: CS(=O)(=O)c1ccc(-c2cnc(N)c(C(=O)Nc3ccccc3)n2)cc1 [VE-821] + COc1cc2c(Oc3ccc(NC(=O)C4(C(=O)Nc5ccc(F)cc5)CC4)cc3F)ccnc2cc1OCCCN1CCOCC1 [Foretinib] (partner 0.25 µM)
In a few lines: as §1

Compound in the test “Vismodegib + Tozasertib”: CS(=O)(=O)c1ccc(C(=O)Nc2ccc(Cl)c(-c3ccccn3)c2)c(Cl)c1 [Vismodegib] + Cc1cc(Nc2cc(N3CCN(C)CC3)nc(Sc3ccc(NC(=O)C4CC4)cc3)n2)n[nH]1 [Tozasertib] (partner 0.1 µM)
Put shortly: as §1

Compound in the test “VE-821 + Bortezomib”: CS(=O)(=O)c1ccc(-c2cnc(N)c(C(=O)Nc3ccccc3)n2)cc1 [VE-821] + CC(C)C[C@H](NC(=O)[C@H](Cc1ccccc1)NC(=O)c1cnccn1)B(O)O [Bortezomib] (partner 0.002 µM)
In a few lines:
as §1

On to NCI-H2405, for which the relative viability is 1 in the test with Ruxolitinib + Vorinostat (first compound 0.08 µM); 0.957 with Ruxolitinib + Vorinostat (first compound 0.253 µM); 1.05 with Ruxolitinib + Vorinostat (first compound 0.8 µM); 1.19 with Ruxolitinib + Vorinostat (first compound 2.53 µM); 0.743 with Ruxolitinib + Vorinostat (first compound 8 µM); 1.09 with VE-821 + Foretinib (first compound 0.08 µM). In addition, the relative viability in the test with VE-821 + Foretinib (first compound 0.253 µM) came to 1.06; in the test with VE-821 + Foretinib (first compound 0.8 µM), 0.993; with VE-821 + Foretinib (first compound 2.53 µM) it was 1.09; with VE-821 + Foretinib (first compound 8 µM) it was 1.12; with Vismodegib + Tozasertib (first compound 0.08 µM), 0.705; in the test with Vismodegib + Tozasertib (first compound 0.253 µM) it was 0.733. Besides, the relative viability came to 0.7 with Vismodegib + Tozasertib (first compound 0.8 µM); 0.709 in the test with Vismodegib + Tozasertib (first compound 2.53 µM); 0.765 in the test with Vismodegib + Tozasertib (first compound 8 µM); 1.1 with VE-821 + Bortezomib (first compound 0.08 µM); 1 in the test with VE-821 + Bortezomib (first compound 0.253 µM); 0.974 with VE-821 + Bortezomib (first compound 0.8 µM). The values for the relative viability in the test with VE-821 + Bortezomib (first compound 2.53 µM) and with VE-821 + Bortezomib (first compound 8 µM) were 1.02 and 0.947, respectively.

Regarding NCI-H3122, the relative viability in the test with Ruxolitinib + Vorinostat (first compound 0.08 µM) amounted to 0.886; with Ruxolitinib + Vorinostat (first compound 0.253 µM), 1.12; with Ruxolitinib + Vorinostat (first compound 0.8 µM) it was 1.13; with Ruxolitinib + Vorinostat (first compound 2.53 µM) it was 0.962; with Ruxolitinib + Vorinostat (first compound 8 µM), 1.02; with VE-821 + Foretinib (first compound 0.08 µM), 0.977. In addition, the relative viability in the test with VE-821 + Foretinib (first compound 0.253 µM) stood at 0.995; with VE-821 + Foretinib (first compound 0.8 µM) it was 0.959; with VE-821 + Foretinib (first compound 2.53 µM) it was 0.986; in the test with VE-821 + Foretinib (first compound 8 µM), 0.925; with Vismodegib + Tozasertib (first compound 0.08 µM) it was 0.399; in the test with Vismodegib + Tozasertib (first compound 0.253 µM) it was 0.382. Moreover, the relative viability with Vismodegib + Tozasertib (first compound 0.8 µM) worked out at 0.343; in the test with Vismodegib + Tozasertib (first compound 2.53 µM), 0.384; in the test with Vismodegib + Tozasertib (first compound 8 µM), 0.373; in the test with VE-821 + Bortezomib (first compound 0.08 µM) it was 1; with VE-821 + Bortezomib (first compound 0.253 µM), 1.02; in the test with VE-821 + Bortezomib (first compound 0.8 µM), 1.01. For the same cell line, the relative viability with VE-821 + Bortezomib (first compound 2.53 µM) was determined as 1.02; in the test with VE-821 + Bortezomib (first compound 8 µM), 1.

PC-3 [JPC-3]: the relative viability came to 0.778 with Ruxolitinib + Vorinostat (first compound 0.253 µM); 0.809 with Ruxolitinib + Vorinostat (first compound 0.8 µM); 0.875 in the test with Ruxolitinib + Vorinostat (first compound 2.53 µM); 0.696 in the test with Ruxolitinib + Vorinostat (first compound 8 µM); 1.12 with VE-821 + Foretinib (first compound 0.08 µM); 0.947 with VE-821 + Foretinib (first compound 0.253 µM). Also, the relative viability in the test with VE-821 + Foretinib (first compound 0.8 µM) is 1.07; with VE-821 + Foretinib (first compound 2.53 µM), 1.06; in the test with VE-821 + Foretinib (first compound 8 µM) it was 0.976; in the test with Vismodegib + Tozasertib (first compound 0.08 µM), 0.932; with Vismodegib + Tozasertib (first compound 0.253 µM), 0.87; with Vismodegib + Tozasertib (first compound 0.8 µM) it was 0.933. For the same cell line, the relative viability in the test with Vismodegib + Tozasertib (first compound 2.53 µM) was 0.852; with Vismodegib + Tozasertib (first compound 8 µM), 0.873; with VE-821 + Bortezomib (first compound 0.08 µM), 0.871; in the test with VE-821 + Bortezomib (first compound 0.253 µM), 0.884; with VE-821 + Bortezomib (first compound 0.8 µM), 0.932; with VE-821 + Bortezomib (first compound 2.53 µM) it was 0.884. In addition, in the test with VE-821 + Bortezomib (first compound 8 µM), the relative viability was 0.842.

Take PC-14: the relative viability in the test with Ruxolitinib + Vorinostat (first compound 0.253 µM) came to 0.788; with Ruxolitinib + Vorinostat (first compound 0.8 µM), 1.05; in the test with Ruxolitinib + Vorinostat (first compound 2.53 µM), 0.658; with Ruxolitinib + Vorinostat (first compound 8 µM) it was 0.652; with VE-821 + Foretinib (first compound 0.08 µM), 1.1; with VE-821 + Foretinib (first compound 0.253 µM) it was 0.913. For the same cell line, the relative viability in the test with VE-821 + Foretinib (first compound 0.8 µM) worked out at 0.974; in the test with VE-821 + Foretinib (first compound 2.53 µM), 1.02; with VE-821 + Foretinib (first compound 8 µM), 0.984; with Vismodegib + Tozasertib (first compound 0.08 µM), 0.554; in the test with Vismodegib + Tozasertib (first compound 0.253 µM) it was 0.606; in the test with Vismodegib + Tozasertib (first compound 0.8 µM) it was 0.556. For the same cell line, the relative viability with Vismodegib + Tozasertib (first compound 2.53 µM) came to 0.539; with Vismodegib + Tozasertib (first compound 8 µM) it was 0.547; with VE-821 + Bortezomib (first compound 0.08 µM), 1.02; with VE-821 + Bortezomib (first compound 0.253 µM), 0.846; in the test with VE-821 + Bortezomib (first compound 0.8 µM), 0.855; with VE-821 + Bortezomib (first compound 2.53 µM) it was 0.871. The relative viability with VE-821 + Bortezomib (first compound 8 µM) is 0.899.

With RERF-LC-KJ, the relative viability with Ruxolitinib + Vorinostat (first compound 0.08 µM) is 0.73; with Ruxolitinib + Vorinostat (first compound 0.253 µM), 0.859; with Ruxolitinib + Vorinostat (first compound 0.8 µM) it was 0.841; with Ruxolitinib + Vorinostat (first compound 2.53 µM), 0.867; with Ruxolitinib + Vorinostat (first compound 8 µM) it was 0.66; with VE-821 + Foretinib (first compound 0.08 µM), 0.861. Besides, the relative viability came out at 0.868 with VE-821 + Foretinib (first compound 0.253 µM); 0.793 with VE-821 + Foretinib (first compound 0.8 µM); 0.767 with VE-821 + Foretinib (first compound 2.53 µM); 0.698 with VE-821 + Foretinib (first compound 8 µM); 0.495 with Vismodegib + Tozasertib (first compound 0.08 µM); 0.532 with Vismodegib + Tozasertib (first compound 0.253 µM). In addition, the relative viability with Vismodegib + Tozasertib (first compound 0.8 µM) stood at 0.413; with Vismodegib + Tozasertib (first compound 2.53 µM), 0.506; with Vismodegib + Tozasertib (first compound 8 µM), 0.449; in the test with VE-821 + Bortezomib (first compound 0.08 µM), 1.15; in the test with VE-821 + Bortezomib (first compound 0.253 µM), 1.13; in the test with VE-821 + Bortezomib (first compound 0.8 µM), 0.957. Also, the results for the relative viability with VE-821 + Bortezomib (first compound 2.53 µM) and with VE-821 + Bortezomib (first compound 8 µM) were 1.03 and 0.82, respectively.

Take SK-LU-1: the relative viability with Ruxolitinib + Vorinostat (first compound 0.08 µM) was 0.763; in the test with Ruxolitinib + Vorinostat (first compound 0.253 µM) it was 0.856; in the test with Ruxolitinib + Vorinostat (first compound 0.8 µM), 0.747; with Ruxolitinib + Vorinostat (first compound 2.53 µM) it was 0.805; with Ruxolitinib + Vorinostat (first compound 8 µM), 0.53; with VE-821 + Foretinib (first compound 0.08 µM), 0.871. Moreover, the relative viability with VE-821 + Foretinib (first compound 0.253 µM) amounted to 0.775; with VE-821 + Foretinib (first compound 0.8 µM), 0.738; with VE-821 + Foretinib (first compound 2.53 µM), 0.59; with VE-821 + Foretinib (first compound 8 µM) it was 0.254; with Vismodegib + Tozasertib (first compound 0.08 µM), 0.269; with Vismodegib + Tozasertib (first compound 0.253 µM), 0.348. Moreover, the relative viability with Vismodegib + Tozasertib (first compound 0.8 µM) stood at 0.295; with Vismodegib + Tozasertib (first compound 2.53 µM) it was 0.347; with Vismodegib + Tozasertib (first compound 8 µM) it was 0.361; with VE-821 + Bortezomib (first compound 0.08 µM), 1.28; in the test with VE-821 + Bortezomib (first compound 0.253 µM) it was 1.13; with VE-821 + Bortezomib (first compound 0.8 µM), 0.99. Further, the relative viability with VE-821 + Bortezomib (first compound 2.53 µM) came to 1.12; in the test with VE-821 + Bortezomib (first compound 8 µM), 1.21.

Consider SW 1573, for which the relative viability is 0.927 with Ruxolitinib + Vorinostat (first compound 0.08 µM); 1.08 with Ruxolitinib + Vorinostat (first compound 0.253 µM); 0.995 with Ruxolitinib + Vorinostat (first compound 0.8 µM); 0.584 with Ruxolitinib + Vorinostat (first compound 2.53 µM); 0.727 with Ruxolitinib + Vorinostat (first compound 8 µM); 0.96 with VE-821 + Foretinib (first compound 0.08 µM). The relative viability with VE-821 + Foretinib (first compound 0.253 µM) was 0.853; with VE-821 + Foretinib (first compound 0.8 µM), 0.861; with VE-821 + Foretinib (first compound 2.53 µM) it was 0.815; in the test with VE-821 + Foretinib (first compound 8 µM), 0.87; with Vismodegib + Tozasertib (first compound 0.08 µM) it was 0.185; in the test with Vismodegib + Tozasertib (first compound 0.253 µM), 0.206. For the same cell line, the relative viability was 0.16 with Vismodegib + Tozasertib (first compound 0.8 µM); 0.13 with Vismodegib + Tozasertib (first compound 2.53 µM); 0.19 with Vismodegib + Tozasertib (first compound 8 µM); 1.23 with VE-821 + Bortezomib (first compound 0.08 µM); 1.05 with VE-821 + Bortezomib (first compound 0.253 µM); 1.15 with VE-821 + Bortezomib (first compound 0.8 µM). Moreover, the relative viability with VE-821 + Bortezomib (first compound 2.53 µM) was found to be 1.15; with VE-821 + Bortezomib (first compound 8 µM), 1.01.
